Data taken from article PMC11869560, “Anticancer and cancer preventive activities of shogaol and curcumin from Zingiberaceae family plants in KG-1a leukemic stem cells” (BMC Complementary Medicine and Therapies, 2025).
Values after ≈ are worked out from the molar mass of the structure shown.

How the values were obtained:
KG-1a cells [1] = assay: MTT cytotoxicity assay in KG-1a cells; type: cell-based, human; conditions: for Selectivity index (SI): IC50 for normal cells (PBMCs) / IC50 for cancer cells (KG-1a)
Description: (§1) MTT (3-(4,5-dimethylthiazol-2-yl)-2,5-diphenyltetrazolium bromide) assay was used to investigate the cytotoxicity of the test samples. KG-1a (1.5 × 10^4 cells/well), K562 (1.0 × 10^4 cells/well), PBMCs (1.0 × 10^5 cells/well), A549 (5.0 × 10^3 cells/well), MCF-7 (5.0 × 10^3 cells/well), and HeLa (5.0 × 10^3 cells/well) were seeded into a 96-well plate and incubated overnight at 37 °C with 5% CO2. […] After that, 5 mg/mL of MTT dye solution (Sigma-Aldrich, MA, USA) was added and incubated for 4 h. The produced formazan crystals were dissolved in 200 µL of DMSO (Sigma-Aldrich, MA, USA); then, the optical density (OD) was measured using an ELISA plate reader (Metertech, Taipei, Taiwan) at 578 nm with a reference wavelength of 630 nm. The percentage of surviving cells was calculated from the absorbance values of the test and control wells using the following Equation. 1 [drawing 1]
(§2) where ODsample is a mean absorbance in test well and ODvehicle control is a mean absorbance in VC well. The average percentage of surviving cells at each concentration obtained from triplicate experiments was plotted as a dose-response curve. Inhibitory concentration values at 50% growth (IC50 value) were defined as the lowest concentration of the test sample that inhibited cell growth by 50% compared to the untreated control.
(§3) To calculate IC50 values, a dose-response curve was fitted using non-linear regression analysis, as described in the GraphPad Prism guidelines (https://www.graphpad.com/support/faq/how-to-determine-an-icsub50sub/). The IC50 value was obtained by determining the point at which the curve intersected 50% growth inhibition. Non-linear regression graphs of the dose-response curve for each compound are provided in the supplementary data file (Figs. S1–S8).
where IC50 N is IC50 for normal cells and IC50 C is IC50 for cancer cells which were treated with the same compounds in both cells.

[2] = system: WT1 protein expression in KG-1a cells; assay: WT1 protein expression in KG-1a cells by Western blotting; type: cell-based, human
Description: (§4) KG-1a cells (1.5 × 10^5 cells/mL) were treated with compounds or extracts at different incubation times. Then, the cells were harvested and the whole proteins were extracted using a RIPA buffer (25 mM Tris-base, pH 7.6, 0.1% SDS, 1% Triton X-100, 150 mM NaCl, and 1 mM EDTA). The protein concentration was measured using the Folin-Lowry or Bradford assay. The whole protein lysates (30 µg/lane) were then separated through 7.5% SDS-PAGE under reducing conditions and then transferred to PVDF membranes. The membranes were blocked in 5% skim milk in PBS, pH 7.4 at RT for 2 h, then, target proteins were probed with specific primary antibodies (anti-WT1, anti-CD34, anti-GAPDH, anti-cleaved caspase-3, anti-cleaved PARP, anti-phospho-Akt, anti-phospho-c-Jun, anti-phospho-SAPK/JNK, and anti-YAP/TAZ) indicated in Table S10 which diluted at a ratio of 1:1,000 in PBS, pH 7.4 at RT for 2 h. After incubation, the membranes were rinsed 6 times with 0.1% Tween-20 (Sigma-Aldrich, MA, USA) in PBS, pH 7.4 (PBS-T), each time for 5 min. The reaction was followed by HRP-conjugated secondary antibody at 1:20,000 dilution in PBS, pH 7.4 at RT for 2 h, then, the membranes were rinsed 6 times for 5 min each with PBS-T. The proteins were shown using Immobilon Forte Western HRP substrate (Millipore, MA, USA). Finally, the protein band signal was quantified by using a scan densitometer (Bio-Rad Laboratories, CA, USA).

KG-1a cells [3] = assay: Cell cycle and apoptosis (sub-G1) assay by flow cytometry in KG-1a cells; type: cell-based, human; conditions: 48 h
Description: After treating KG-1a cells with active compounds at various concentrations for 48 h, the cells were pulsed with 10 µM BrdU (Sigma-Aldrich, MA, USA) for 20 min at 37 °C in an incubator with 5% CO2. Subsequently, the cells were harvested, washed with ice-cold PBS, pH 7.4 three times, and then fixed with 70% ethanol in PBS, pH 7.4 at −30 °C. Following fixation, the cells were washed and resuspended in 2 N HCl/0.5% Triton X-100 for 30 min at room temperature (RT). Then, 0.1 M sodium tetraborate decahydrate was added for 2 min at RT to neutralize the acid. Subsequently, the cells were stained with FITC-anti-BrdU antibody for 30 min at RT. After washing, the cells were resuspended in propidium iodide (PI) (Dojindo, Kumamoto, Japan) in PBS, pH 7.4 at a ratio of 1:1,000. The cell cycle phases were detected using a flow cytometer (CytoFLEX S, Beckman Coulter, CA, USA) and analyzed with the CytExpert program (Beckman Coulter, CA, USA).
The flow cytometry data were analyzed to assess both apoptosis and cell cycle distribution. Apoptosis was evaluated by determining the percentage of cells in the sub-G1 phase using the Nicoletti assay. For cell cycle analysis, populations in the G1, S, and G2/M phases were calculated after excluding the sub-G1 population to avoid interference from apoptotic cells, allowing for a clearer assessment of cell cycle arrest in different phases. Data were presented in separate graphs for the sub-G1 population and cell cycle phase distributions.

KG-1a cells [4] = assay: Cell death analysis by PI staining and flow cytometry in KG-1a cells; type: cell-based, human; conditions: nocodazole 5–120 ng/mL, shogaol 6–9 µg/mL, curcumin various concentrations; time course
Description: Additionally, PI staining was used to investigate the cytotoxicity of the active compounds. KG-1a cells after exposure to the active compounds with various concentration were harvested at different incubation times and washed with ice-cold PBS, pH 7.4 for 2 times. Then, the cells were resuspended with PI in PBS, pH 7.4 at a ratio of 1:10,000. The percentage of dead cells was detected by flow cytometry (CytoFLEX S, Beckman Coulter, CA, USA) and analyzed by CytExpert program (Beckman Coulter, CA, USA).

[5] = system: cleaved caspase-3 and PARP in KG-1a cells; assay: Cleaved caspase-3 and cleaved PARP in KG-1a cells by Western blotting; type: cell-based, human; conditions: IC50 concentrations (curcumin 10 µg/mL, shogaol 3 µg/mL, nocodazole 10 ng/mL), 0–12 h
Description: as §4

PBMCs = assay: MTT cytotoxicity assay in PBMCs; type: cell-based, human
Description: PBMCs were isolated from blood samples using the Ficoll-Hypaque technique. Initially, 10–20 mL of blood was collected in a heparin tube at a ratio of 1:500 from a minimum of three healthy volunteers. Subsequently, the blood samples were diluted with Phosphate buffer saline (PBS), pH 7.4, at a ratio of 1:1 to reduce viscosity. Histopaque-1077 (Sigma-Aldrich, MA, USA) was then underlaid the diluted sample and centrifuged at 400×g for 30 min. The resulting PBMCs were collected, washed with PBS, pH 7.4, and prepared for further experiments.
as §1, §2, §3

RAW264.7 cells = assay: Cytotoxicity (IC20, cell viability) in RAW264.7 cells; type: cell-based; conditions: incubation for 48 h
Description: MTT (3-(4,5-dimethylthiazol-2-yl)-2,5-diphenyltetrazolium bromide) assay was used to investigate the cytotoxicity of the test samples. […] After that, 5 mg/mL of MTT dye solution (Sigma-Aldrich, MA, USA) was added and incubated for 4 h. The produced formazan crystals were dissolved in 200 μL of DMSO (Sigma-Aldrich, MA, USA); then, the optical density (OD) was measured using an ELISA plate reader ([…], Taiwan) at 578 nm with a reference wavelength of 630 nm. The percentage of surviving cells was calculated from the absorbance values of the test and control wells using the following Equation. 1 [drawing 1] […] Afterward, supernatants were collected, and the levels of TNF-α and NO were measured using the Mouse TNF alpha Uncoated ELISA Kit (InvitrogenTM, ThermoFisher Scientific, MA, USA) and the Total Nitric Oxide Assay Kit (InvitrogenTM, ThermoFisher Scientific, MA, USA), respectively, according to the manufacturer's instructions.

[6] = system: NO production in LPS-activated RAW264.7 cells; assay: NO production in LPS-activated RAW264.7 cells; type: cell-based, mouse; conditions: IC20 concentration, LPS-activated, 24 h
Description: For the measurement of tumor necrosis factor-alpha (TNF-α) and NO, RAW264.7 cells were pre-treated with plant extracts and active compounds at a non-cytotoxic dose (IC20) (Table S9) or 1 µg/mL of dexamethasone (positive control) in a 24-well plate for 2 h. Subsequently, 1 µg/mL of lipopolysaccharide (LPS) (Cat No. 00497693, Invitrogen™, MA, USA) was added to each well, and the cells were incubated for an additional 24 h to allow sufficient time for the compounds to exert measurable anti-inflammatory effects while maintaining cell viability. Afterward, supernatants were collected, and the levels of TNF-α and NO were measured using the Mouse TNF alpha Uncoated ELISA Kit (Invitrogen™, ThermoFisher Scientific, MA, USA) and the Total Nitric Oxide Assay Kit (Invitrogen™, ThermoFisher Scientific, MA, USA), respectively, according to the manufacturer’s instructions.
The percentage of NO or cytokine inhibitions were calculated using the following equation: […]
where A is the level of cytokine or NO without treatment, and B is the level of cytokine or NO with treatment.

[7] = system: CD34 protein expression in KG-1a cells; assay: CD34 protein expression in KG-1a cells by Western blotting; type: cell-based, human; conditions: IC20 concentrations, 48 h, normalized to GAPDH
Description: as §4

KG-1a cells [8] = assay: Trypan blue exclusion test, cell numbers of KG-1a cells; type: cell-based, human; conditions: IC20 concentrations, 48 h
Description: (§5) This test was used to confirm the cytotoxicity of the test samples. The cancer cells after exposure to crude ethanolic extracts and active compounds for 48 h were harvested and washed with ice-cold PBS, pH 7.4 for 3 times. Then, the cells were resuspended with PBS, pH 7.4. The cell suspensions were diluted with PBS, pH 7.4 at the appropriate dilution before being mixed with 0.2% trypan blue solution at 1:2 dilution for cell count on a hemocytometer. From this test, the viable cells and the dead cells could also be obviously detected.
as §5, with “crude ethanolic extracts and active compounds. KG-1a” for “the test samples. The cancer”

[9] = active compounds and drugs, MTT, 48 h

**Q.** For `COC(=O)Nc1nc2ccc(C(=O)c3cccs3)cc2[nH]1` [Nocodazole, nocodazole, reference compound], which IC50 (KG-1a cells [1]; Homo sapiens, KG-1a, as used for Western blotting, read-out: IC50 concentration in KG-1a cells) is on record?
**A.** The IC50 was 0.01 µg/mL (≈ 0.0332 µM).

**Q.** What about the IC20 (KG-1a cells [1]; Homo sapiens, KG-1a, as used in the cell cycle assay, read-out: IC20 concentration in KG-1a cells) of the same molecule?
**A.** The IC20 was 0.006 µg/mL (≈ 0.0199 µM).

**Q.** And the “effect on WT1 expression” value ([2]; IC50 concentration, up to 12 h)?
**A.** Its value is “failed to reduce WT1 expression even after 12 h of incubation”.

**Q.** What about the “effect on sub-G1 population compared to VC” value (KG-1a cells [3]; IC20 concentration (nocodazole 6 ng/mL, curcumin 3 µg/mL, shogaol 0.12 µg/mL)) of the same molecule?
**A.** The value was “significantly increased the sub-G1 population”.

**Q.** And the “increase of proportion of cells in G2/M phase” value (KG-1a cells [3]; IC20 concentration, sub-G1 excluded)?
**A.** Its value is 23.48 ± 1.35%.

**Q.** What about the “induction of cell death (PI staining)” value (KG-1a cells [4]) of the same molecule?
**A.** The value was “significant induction of cell death after 24 h of incubation”.

**Q.** What about the “time to activation of cleaved caspase-3 and PARP” value [5] of the same molecule?
**A.** Its value is “failed to induce the activation of cleaved caspase-3 and PARP even after 12 h of incubation”.

**Q.** With `CCCCC[C@H](O)CC(=O)CCc1ccc(O)c(OC)c1` [Gingerol, gingerol] as the molecule, how does the “Selectivity index (SI)” value (KG-1a cells [1]; 48 h) read?
**A.** Its value is greater than 1.30.

**Q.** What about the “Selectivity index (SI)” value (KG-1a cells [1]; 48 h, listed as gingerol) of the same molecule?
**A.** Its value is “greater than 1”.

**Q.** And the “IC50 value R1” value (KG-1a cells [1]; Table S7, KG-1a, first replicate)?
**A.** The value was 77.86 µg/mL (≈ 264 µM).

**Q.** And the “IC50 value R3” value (KG-1a cells [1]; Table S7, KG-1a, third replicate)?
**A.** Its value is 77.08 µg/mL (≈ 262 µM).

**Q.** And the “IC50 KG-1a” value (KG-1a cells [1]; [9])?
**A.** The value was 76.77 ± 1.28 µg/mL (≈ 261 µM).

**Q.** And the “IC20 KG-1a (inhibitory concentration at 20% growth)” value (KG-1a cells [1]; incubation for 48 h)?
**A.** The value was 14.09 ± 3.87 µg/mL (≈ 47.9 µM).

**Q.** What about the “IC50 value R1” value (PBMCs; Table S8, PBMCs, first replicate) of the same molecule?
**A.** The value was greater than 100 µg/mL.

**Q.** And the “IC50 value Mean” value (PBMCs; Table S8, PBMCs, mean of R1-R3)?
**A.** The value was greater than 100 µg/mL.

**Q.** And the “IC50 value R3” value (PBMCs; Table S8, PBMCs, third replicate)?
**A.** Its value is greater than 100 µg/mL.

**Q.** What about the “IC50 PBMCs” value (PBMCs; [9]) of the same molecule?
**A.** The value was greater than 100 µg/mL.

**Q.** What about the “IC20 PBMCs (inhibitory concentration at 20% growth)” value (PBMCs; incubation for 48 h) of the same molecule?
**A.** The value was 76.94 ± 4.13 µg/mL (≈ 261 µM).

**Q.** And the “IC20 RAW264.7 (inhibitory concentration at 20% growth)” value (RAW264.7 cells)?
**A.** The value was 16.73 ± 4.64 µg/mL (≈ 56.8 µM).

**Q.** What about the “effect on NO production compared to dexamethasone (positive control)” value [6] of the same molecule?
**A.** Its value is “had no effect”.

**Q.** What about the “decrease of WT1 protein level compared to VC” value ([2]; IC20 concentrations, 48 h, normalized to GAPDH) of the same molecule?
**A.** Its value is 43.98 ± 8.93%.

**Q.** And the “decrease of CD34 protein level compared to VC” value [7]?
**A.** Its value is 31.95 ± 5.70%.

**Q.** And the “decrease of total cell number compared to VC” value (KG-1a cells [8])?
**A.** Its value is 31.39 ± 8.69%.

**Q.** What about the “normalized viable cell counts” value (KG-1a cells [8]) of the same molecule?
**A.** Its value is 979.50 ± 8.90 × 10^3 cells per 1 million total cells.
